Tests used:
[1] = target: Mitogen-activated protein kinase kinase kinase 10 (Homo sapiens) (UniProt Q02779); assay: Selectivity interaction (KinomeScan (DiscoverX)) EUB0000595a MAP3K10; settings: at 10 µM
[2] = target: T1, Histone-arginine methyltransferase CARM1 (Homo sapiens) (UniProt Q86X55); settings: MM.1R, at 3 µM
T1 sequence (whole entry): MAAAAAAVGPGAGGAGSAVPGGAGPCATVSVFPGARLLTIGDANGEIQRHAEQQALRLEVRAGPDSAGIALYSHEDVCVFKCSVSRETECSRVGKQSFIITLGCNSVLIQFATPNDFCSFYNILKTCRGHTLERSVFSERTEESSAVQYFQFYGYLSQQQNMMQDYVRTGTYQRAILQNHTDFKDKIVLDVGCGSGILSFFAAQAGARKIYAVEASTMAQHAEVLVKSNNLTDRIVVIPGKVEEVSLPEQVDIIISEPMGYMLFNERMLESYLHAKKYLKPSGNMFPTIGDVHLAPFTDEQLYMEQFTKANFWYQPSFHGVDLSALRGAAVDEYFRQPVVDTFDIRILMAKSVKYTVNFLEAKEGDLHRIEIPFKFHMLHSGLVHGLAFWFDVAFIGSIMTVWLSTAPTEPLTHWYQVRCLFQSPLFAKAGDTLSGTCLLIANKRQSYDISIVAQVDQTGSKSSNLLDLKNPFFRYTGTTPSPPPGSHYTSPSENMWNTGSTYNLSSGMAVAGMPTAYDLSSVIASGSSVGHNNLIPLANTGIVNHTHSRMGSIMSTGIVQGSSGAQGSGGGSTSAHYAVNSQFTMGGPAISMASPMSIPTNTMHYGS

[3] = target: Proto-oncogene tyrosine-protein kinase Src (Homo sapiens, UniProt P12931); assay: Selectivity interaction (KinomeScan (DiscoverX)) EUB0000695a SRC; settings: at 100 nM
[4] = target: Homeodomain-interacting protein kinase 3 (Homo sapiens, UniProt Q9H422); assay: Selectivity interaction (KinomeScan (DiscoverX)) EUB0000666a HIPK3; settings: at 10 µM
[5] = target: Neuronal acetylcholine receptor; alpha4/beta2 (Homo sapiens) (UniProt P17787+P43681); assay: Selectivity interaction (Panel of non-epigenetic targets (kinases, GPCRs, ion channels, and transporters, Eurofins) ) EUB0000271b CHRNA4; format: protein-complex assay; settings: at 1 µM
[6] = target: Tyrosine-protein kinase JAK2 (Homo sapiens, UniProt O60674); assay: Selectivity interaction (Kinase panel (Carna Biosciences)) EUB0001542aTs JAK2; settings: at 1 µM
[7] = target: Epidermal growth factor receptor (Homo sapiens, UniProt P00533); assay: (§1) Selectivity interaction (KinomeScan (DiscoverX)) EUB0001619a EGFR; settings: at 1 µM
[8] = system: Epidermal growth factor receptor (Homo sapiens), P00533 [T790M]; assay: as §1; settings: at 1 µM
[9] = system: Epidermal growth factor receptor (Homo sapiens), P00533 [L861Q]; assay: as §1; settings: at 1 µM
[10] = system: Epidermal growth factor receptor (Homo sapiens), P00533 [UNDEFINED MUTATION]; assay: as §1; settings: at 1 µM
[11] = system: Epidermal growth factor receptor (Homo sapiens), P00533 [L858R,T790M]; assay: as §1; settings: at 1 µM
[12] = system: Epidermal growth factor receptor (Homo sapiens), P00533 [G719C]; assay: as §1; settings: at 1 µM
[13] = system: Epidermal growth factor receptor (Homo sapiens), P00533 [L858R]; assay: as §1; settings: at 1 µM
[14] = system: Epidermal growth factor receptor (Homo sapiens), P00533 [G719S]; assay: as §1; settings: at 1 µM
[15] = target: Protein kinase C alpha type (Homo sapiens, UniProt P17252); assay: Selectivity interaction (ActivX KiNativ screen (ex vivo kinase selectivity in human PBMCs)) EUB0001619a PRKCA; format: cell-based; settings: PBMC, at 1 µM
[16] = target: Cyclin-dependent kinase 14 (Homo sapiens) (UniProt O94921); assay: Selectivity interaction (ActivX KiNativ screen (kinase selectivity in THP-1 cell lysates)) EUB0000639a CDK14; format: subcellular; settings: lysate, at 5 µM
[17] = target: T2, Dual specificity mitogen-activated protein kinase kinase 3 (Homo sapiens) (UniProt P46734); assay: Selectivity interaction (Kinase panel (Invitrogen)) EUB0000639a MAP2K3; settings: at 200 nM
T2 sequence (whole entry): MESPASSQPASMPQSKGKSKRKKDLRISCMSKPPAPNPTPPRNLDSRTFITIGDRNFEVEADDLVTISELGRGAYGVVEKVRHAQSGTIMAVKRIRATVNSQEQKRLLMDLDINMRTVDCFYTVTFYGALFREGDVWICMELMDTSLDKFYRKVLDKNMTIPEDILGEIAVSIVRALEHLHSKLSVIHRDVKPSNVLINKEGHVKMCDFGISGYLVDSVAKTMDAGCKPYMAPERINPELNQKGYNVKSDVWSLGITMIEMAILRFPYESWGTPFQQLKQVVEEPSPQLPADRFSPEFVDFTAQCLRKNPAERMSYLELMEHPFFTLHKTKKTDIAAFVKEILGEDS

[18] = target: DNA-dependent protein kinase catalytic subunit (Homo sapiens) (UniProt P78527); assay: Selectivity interaction (ActivX KiNativ screen (kinase selectivity in THP-1 cell lysates)) EUB0000639a PRKDC; format: subcellular; settings: lysate, at 1 µM
[19] = target: Cyclin-dependent kinase 9 (Homo sapiens, UniProt P50750); settings: at 10 µM
[20] = target: Myosin light chain kinase 2, skeletal/cardiac muscle (Homo sapiens) (UniProt Q9H1R3); assay: Selectivity interaction (Ambit KINOMEscan and KiNATiv profiling in Jurkat cells) EUB0000090b MYLK2; format: cell-based; settings: at 1 µM

Sequence of Epidermal growth factor receptor (Homo sapiens), P00533 [T790M] (P00533 whole entry T790M): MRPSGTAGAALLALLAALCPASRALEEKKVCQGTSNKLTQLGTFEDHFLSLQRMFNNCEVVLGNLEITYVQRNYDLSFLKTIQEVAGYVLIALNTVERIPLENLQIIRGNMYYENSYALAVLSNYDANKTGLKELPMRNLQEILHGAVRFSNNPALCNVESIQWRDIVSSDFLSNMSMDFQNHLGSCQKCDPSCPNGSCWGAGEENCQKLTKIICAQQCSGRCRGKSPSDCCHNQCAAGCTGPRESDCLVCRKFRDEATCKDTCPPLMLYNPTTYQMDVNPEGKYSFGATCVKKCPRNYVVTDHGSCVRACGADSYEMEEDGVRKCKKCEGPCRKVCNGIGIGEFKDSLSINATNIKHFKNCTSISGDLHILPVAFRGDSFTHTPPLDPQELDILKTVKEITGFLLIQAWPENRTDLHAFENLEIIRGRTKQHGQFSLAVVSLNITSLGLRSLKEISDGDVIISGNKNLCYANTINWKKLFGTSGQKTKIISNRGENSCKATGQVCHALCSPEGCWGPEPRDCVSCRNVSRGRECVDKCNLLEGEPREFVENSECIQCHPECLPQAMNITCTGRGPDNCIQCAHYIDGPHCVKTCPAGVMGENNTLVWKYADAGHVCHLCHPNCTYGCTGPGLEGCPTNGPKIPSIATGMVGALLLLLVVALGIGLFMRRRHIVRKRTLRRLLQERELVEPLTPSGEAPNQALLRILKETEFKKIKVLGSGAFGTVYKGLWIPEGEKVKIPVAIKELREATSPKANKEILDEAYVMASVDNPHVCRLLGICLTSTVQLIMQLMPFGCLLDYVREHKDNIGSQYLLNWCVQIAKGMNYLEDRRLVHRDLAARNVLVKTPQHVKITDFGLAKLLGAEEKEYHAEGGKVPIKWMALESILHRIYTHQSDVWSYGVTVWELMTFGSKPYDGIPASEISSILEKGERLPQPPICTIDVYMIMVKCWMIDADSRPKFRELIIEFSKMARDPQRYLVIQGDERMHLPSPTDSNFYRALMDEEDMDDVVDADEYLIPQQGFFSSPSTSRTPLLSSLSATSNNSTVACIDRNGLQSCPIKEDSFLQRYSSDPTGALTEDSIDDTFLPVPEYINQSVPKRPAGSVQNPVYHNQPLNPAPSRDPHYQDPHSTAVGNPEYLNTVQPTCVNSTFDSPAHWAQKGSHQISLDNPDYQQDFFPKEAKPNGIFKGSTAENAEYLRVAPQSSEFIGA
Sequence of Cyclin-dependent kinase 14 (Homo sapiens) (O94921 whole entry): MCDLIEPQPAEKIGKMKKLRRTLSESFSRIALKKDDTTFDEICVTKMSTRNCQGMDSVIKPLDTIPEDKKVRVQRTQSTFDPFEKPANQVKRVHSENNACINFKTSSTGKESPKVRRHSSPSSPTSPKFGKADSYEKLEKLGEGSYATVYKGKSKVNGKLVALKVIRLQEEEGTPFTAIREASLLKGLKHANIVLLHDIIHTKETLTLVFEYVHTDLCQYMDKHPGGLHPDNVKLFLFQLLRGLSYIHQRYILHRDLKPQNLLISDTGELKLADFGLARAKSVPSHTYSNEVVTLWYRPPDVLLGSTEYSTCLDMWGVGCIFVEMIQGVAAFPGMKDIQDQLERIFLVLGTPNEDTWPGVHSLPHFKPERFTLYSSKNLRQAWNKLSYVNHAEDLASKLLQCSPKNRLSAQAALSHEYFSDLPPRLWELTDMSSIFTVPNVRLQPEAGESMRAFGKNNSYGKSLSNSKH
Sequence of Mitogen-activated protein kinase kinase kinase 10 (Homo sapiens) (Q02779 whole entry, looked up): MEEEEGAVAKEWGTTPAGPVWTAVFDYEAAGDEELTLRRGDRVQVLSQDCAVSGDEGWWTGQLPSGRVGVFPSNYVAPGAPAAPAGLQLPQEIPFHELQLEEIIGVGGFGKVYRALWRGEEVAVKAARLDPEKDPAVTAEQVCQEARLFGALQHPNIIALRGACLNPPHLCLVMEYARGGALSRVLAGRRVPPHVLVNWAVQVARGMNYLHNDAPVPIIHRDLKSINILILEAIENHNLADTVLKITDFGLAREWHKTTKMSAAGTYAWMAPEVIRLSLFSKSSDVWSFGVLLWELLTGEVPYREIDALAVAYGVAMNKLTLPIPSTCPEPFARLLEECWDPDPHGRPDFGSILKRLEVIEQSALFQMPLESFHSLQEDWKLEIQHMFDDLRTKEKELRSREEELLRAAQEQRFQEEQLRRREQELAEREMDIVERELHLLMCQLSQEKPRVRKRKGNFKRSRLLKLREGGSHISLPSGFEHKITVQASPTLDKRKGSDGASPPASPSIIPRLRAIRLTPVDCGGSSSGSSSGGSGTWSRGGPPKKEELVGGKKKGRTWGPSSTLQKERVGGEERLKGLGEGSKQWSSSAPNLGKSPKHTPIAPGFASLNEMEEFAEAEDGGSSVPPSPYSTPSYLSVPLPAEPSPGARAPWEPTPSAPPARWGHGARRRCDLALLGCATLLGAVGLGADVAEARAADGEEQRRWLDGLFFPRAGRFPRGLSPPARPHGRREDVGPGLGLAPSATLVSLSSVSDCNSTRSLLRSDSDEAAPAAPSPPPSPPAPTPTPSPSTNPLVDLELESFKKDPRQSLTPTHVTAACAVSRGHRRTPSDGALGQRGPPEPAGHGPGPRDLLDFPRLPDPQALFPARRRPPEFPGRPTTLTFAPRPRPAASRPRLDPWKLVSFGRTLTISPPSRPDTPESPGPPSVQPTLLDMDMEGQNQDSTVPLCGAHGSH
Sequence of Proto-oncogene tyrosine-protein kinase Src (P12931 2-536 limits assumed): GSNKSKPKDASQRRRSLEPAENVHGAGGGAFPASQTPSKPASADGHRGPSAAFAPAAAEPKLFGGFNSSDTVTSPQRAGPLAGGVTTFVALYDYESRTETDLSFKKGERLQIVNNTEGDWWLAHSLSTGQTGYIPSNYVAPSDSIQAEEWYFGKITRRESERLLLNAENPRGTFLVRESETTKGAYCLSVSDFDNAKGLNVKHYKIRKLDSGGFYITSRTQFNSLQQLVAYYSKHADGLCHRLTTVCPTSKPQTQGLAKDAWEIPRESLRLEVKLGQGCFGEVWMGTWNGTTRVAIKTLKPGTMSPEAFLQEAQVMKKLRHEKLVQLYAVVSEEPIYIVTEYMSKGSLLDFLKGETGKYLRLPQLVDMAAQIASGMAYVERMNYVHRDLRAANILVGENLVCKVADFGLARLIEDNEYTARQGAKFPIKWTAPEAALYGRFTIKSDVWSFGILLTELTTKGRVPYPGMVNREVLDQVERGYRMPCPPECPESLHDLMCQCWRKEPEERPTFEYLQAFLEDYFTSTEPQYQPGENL
Sequence of Homeodomain-interacting protein kinase 3 (Q9H422 whole entry, looked up): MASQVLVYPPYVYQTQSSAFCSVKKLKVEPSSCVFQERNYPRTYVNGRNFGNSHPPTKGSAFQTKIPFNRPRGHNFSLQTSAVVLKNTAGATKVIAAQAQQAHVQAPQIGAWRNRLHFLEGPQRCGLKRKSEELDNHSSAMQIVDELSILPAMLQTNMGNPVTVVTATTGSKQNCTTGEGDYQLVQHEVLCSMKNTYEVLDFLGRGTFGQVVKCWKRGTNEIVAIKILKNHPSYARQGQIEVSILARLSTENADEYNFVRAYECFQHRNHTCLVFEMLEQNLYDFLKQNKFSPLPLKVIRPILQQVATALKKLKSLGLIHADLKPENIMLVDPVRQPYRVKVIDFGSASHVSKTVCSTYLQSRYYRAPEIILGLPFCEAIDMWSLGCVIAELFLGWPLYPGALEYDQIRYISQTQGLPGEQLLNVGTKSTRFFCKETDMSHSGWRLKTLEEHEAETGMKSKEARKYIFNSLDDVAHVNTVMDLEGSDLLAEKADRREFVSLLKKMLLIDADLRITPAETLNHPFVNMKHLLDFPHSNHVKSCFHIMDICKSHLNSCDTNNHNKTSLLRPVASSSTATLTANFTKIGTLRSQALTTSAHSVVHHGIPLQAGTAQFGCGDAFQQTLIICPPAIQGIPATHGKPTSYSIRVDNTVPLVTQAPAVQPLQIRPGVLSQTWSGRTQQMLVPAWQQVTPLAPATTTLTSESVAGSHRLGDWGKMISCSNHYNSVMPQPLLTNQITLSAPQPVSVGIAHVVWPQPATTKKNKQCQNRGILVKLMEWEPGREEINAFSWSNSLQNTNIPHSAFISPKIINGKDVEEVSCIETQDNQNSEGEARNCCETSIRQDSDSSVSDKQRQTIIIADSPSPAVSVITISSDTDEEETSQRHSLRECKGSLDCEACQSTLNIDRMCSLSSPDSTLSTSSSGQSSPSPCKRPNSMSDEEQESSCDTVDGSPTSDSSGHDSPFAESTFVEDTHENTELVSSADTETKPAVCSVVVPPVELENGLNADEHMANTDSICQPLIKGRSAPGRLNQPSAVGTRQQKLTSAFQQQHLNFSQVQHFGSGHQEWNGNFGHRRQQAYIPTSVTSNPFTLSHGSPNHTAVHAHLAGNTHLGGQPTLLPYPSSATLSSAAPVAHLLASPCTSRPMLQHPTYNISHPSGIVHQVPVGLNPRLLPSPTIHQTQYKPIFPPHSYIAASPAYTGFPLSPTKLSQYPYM

SMILES: COCC(=O)NC/C=C/c1ccc2ncnc(Nc3ccc(Oc4ccc(C)nc4)c(C)c3)c2c1 [CP-724714]
- % of control [1]: 100%

SMILES: CNCCN1CCC(c2cc(CN(C)C(=O)c3cccc(Oc4ccccc4)c3)ccn2)CC1
- % of growth rate [2]: -37.8%

SMILES: Cc1cc(F)c(C(=O)Nc2cccc(-c3nncn3C(C)C)n2)cc1-n1cnc(C2CC2)c1
- % of control [3]: 100%

SMILES: O=C(NOC[C@H](O)CO)c1ccc(F)c(F)c1Nc1ccc(I)cc1F
- % of control [4]: 49%

SMILES: Cc1cc(C)cc([C@@H]2c3cc(C)ccc3NC(=O)CN2C(=O)c2ccc(Br)s2)c1
- % of inhibition [5]: -18%

SMILES: Cn1cc(Nc2nccc(N3CC4CCC(C3)N4C(=O)[C@@H]3CC3(F)F)n2)cn1
- % of inhibition [6]: 94%

SMILES: N#Cc1cccc(-c2c[nH]c3ncnc(N4CCOCC4)c23)c1
- % of control [7]: 100%
- % of control [8]: 81%
- % of control [9]: 86%
- % of control [10]: 77%
- % of control [11]: 100%
- % of control [12]: 84%
- % of control [13]: 78%
- % of control [14]: 100%
- % of inhibition [15]: 57%

SMILES: CC[C@@H]1[C@H](F)C(=O)N[C@@H]1COc1nccc2cc(C(N)=O)c(OC)cc12 [ZIMLOVISERTIB]
- % of inhibition [16]: 12.8%
- % of inhibition [17]: 0.853%
- % of inhibition [18]: 7.2%

SMILES: CCN(CC)CCCCNc1ncc2cc(-c3cc(OC)cc(OC)c3)c(NC(=O)NC(C)(C)C)nc2n1
- % of control [19]: 100%

SMILES: CN(C)C/C=C/C(=O)Nc1ccc(C(=O)N2CCCC(Nc3ncc(Cl)c(-c4c[nH]c5ccccc45)n3)C2)cc1 (stereo not given)
- % of control [20]: 91%
